Source: US4601984A, “Process to produce antibiotics X-14873 A, G and H” (Hoffmann-La Roche Inc., priority 1983, dated 1986)
≈ marks a conversion by molar mass, not a printed value.

Legend:
Bacillus sp. TA = assay: Minimum Inhibitory Concentration; assay type: cell-based; settings: ATCC27860; Bacillus sp. TA ATCC 27860
gram-positive bacteria = assay: Activity against gram-positive bacteria, summary; assay type: cell-based
Candida albicans = assay: Minimum Inhibitory Concentration; assay type: cell-based; settings: NRRL477; Candida albicans NRRL 477
Bacillus megaterium = assay: Minimum Inhibitory Concentration; assay type: cell-based; settings: Priestia megaterium, ATCC8011; Bacillus megaterium ATCC 8011
Mycobacterium phlei = assay: Minimum Inhibitory Concentration; assay type: cell-based; settings: Mycolicibacterium phlei, ATCC355; Mycobacterium phlei ATCC 355
Paecilomyces varioti = assay: Minimum Inhibitory Concentration; assay type: cell-based; settings: ATCC25820; Paecilomyces varioti ATCC 25820
Bacillus sp. E = assay: Minimum Inhibitory Concentration; assay type: cell-based; settings: ATCC27359; Bacillus sp. E ATCC 27359
Saccharomyces cerevisiae = assay: Minimum Inhibitory Concentration; assay type: cell-based; settings: ATCC4226; Saccharomyces cerevisiae ATCC 4226
Bacillus subtilis = assay: Minimum Inhibitory Concentration; assay type: cell-based; settings: NRRL558; Bacillus subtilis NRRL 558
Penicillum digitatum = assay: Minimum Inhibitory Concentration; assay type: cell-based; settings: Penicillum digitatum ATCC 26821
Streptomyces cellulosae = assay: Minimum Inhibitory Concentration; assay type: cell-based; settings: ATCC3313; Streptomyces cellulosae ATCC 3313
Staphylococcus aureus = assay: Minimum Inhibitory Concentration; assay type: cell-based; settings: ATCC6538P; Staphylococcus aureus ATCC 6538P
Sarcina lutea = assay: Minimum Inhibitory Concentration; assay type: cell-based; settings: Micrococcus luteus, ATCC9341; Sarcina lutea ATCC 9341
Streptococcus faecium = assay: Minimum Inhibitory Concentration; assay type: cell-based; settings: Enterococcus faecium, ATCC8043; Streptococcus faecium ATCC 8043
[1] = Oral toxicity (LD50) in mice, 24 hours; settings: mouse, in vivo
[2] = test system: volatile fatty acids produced in the rumen; assay: Ratio of volatile fatty acids produced in the rumen (GLC); assay type: in vivo, steer; settings: for VFA Ratio: C3/(C2 + nC4): ± one standard deviation, 3 animals
Pseudomonas aeruginosa B = assay: Minimum Inhibitory Concentration; assay type: cell-based
Klebsiella pneumoniae A = assay: Minimum Inhibitory Concentration; assay type: cell-based
Microsporum audouini = assay: Minimum Inhibitory Concentration; assay type: cell-based
[3] = test system: Trichophyton mentagrophytes; assay: Minimum Inhibitory Concentration; assay type: cell-based
[4] = test system: Enterobacter cloacae 5699; assay: Minimum Inhibitory Concentration; assay type: cell-based
[5] = test system: Staphylococcus aureus Smith; assay: Minimum Inhibitory Concentration; assay type: cell-based
Escherichia coli 257 = assay: Minimum Inhibitory Concentration; assay type: cell-based
Salmonella typhi P58A = assay: Minimum Inhibitory Concentration; assay type: cell-based; settings: Salmonella enterica, read-out: Minimum Inhibitory Concentration
Proteus mirabilis 190 = assay: Minimum Inhibitory Concentration; assay type: cell-based
E. tenella = assay: In vitro coccidiostatic activity; assay type: cell-based; settings: Eimeria tenella, read-out: in vitro activity against E. tenella, active concentration
Treponema hyodysenteriae = assay: Minimum inhibitory concentration against the agent of swine dysentery; assay type: cell-based; settings: Brachyspira hyodysenteriae
Serratia marcescens SM = assay: Minimum Inhibitory Concentration; assay type: cell-based
ruminants = assay: Growth promotion and feed utilization in ruminants; assay type: in vivo, e.g. cattle
Strain X-14873 = assay: Streptomycin sensitivity of the producing strain (disc); assay type: cell-based, Streptomyces sp. X-14873; settings: Streptomyces, X14873; 10 mcg in 1/4" disc
[6] = Medication day 2, 30 g/ton in ration, nonmedicated 0.211 ± 0.019
[7] = Medication day 5, 30 g/ton in ration, nonmedicated 0.248 ± 0.058
[8] = Medication day 7, 30 g/ton in ration, nonmedicated 0.325 ± 0.166
[9] = Medication day 9, 30 g/ton in ration, nonmedicated 0.338 ± 0.164
[10] = Medication day 12, 30 g/ton in ration, nonmedicated 0.293 ± 0.148
[11] = Pre-medication day 1 (baseline)
[12] = Pre-medication day 3 (baseline)
[13] = Pre-medication day 5 (baseline)
[14] = Pre-medication day 8 (baseline)
[15] = Pre-medication day 10 (baseline)

Row | SMILES | MIC (Bacillus sp. TA) | effect on growth of gram-positive bacteria (gram-positive bacteria) | MIC (Candida albicans) | MIC (Bacillus megaterium) | MIC (Mycobacterium phlei) | MIC (Paecilomyces varioti) | MIC (Bacillus sp. E) | MIC (Saccharomyces cerevisiae) | MIC (Bacillus subtilis) | MIC (Penicillum digitatum) | MIC (Streptomyces cellulosae) | MIC (Staphylococcus aureus) | MIC (Sarcina lutea) | MIC (Streptococcus faecium) | LD50 at 24 h [1] | VFA Ratio: C3/(C2 + nC4) [2, 6] | VFA Ratio: C3/(C2 + nC4) [2, 7] | VFA Ratio: C3/(C2 + nC4) [2, 8] | VFA Ratio: C3/(C2 + nC4) [2, 9] | VFA Ratio: C3/(C2 + nC4) [2, 10] | also measured
1 | CCC(C(=O)C(C)C(O)C(C)C1OC(C)(O)C(CC)C(O)C1C)C1OC(C)(C2(O)OC(CC)(C(O)CC)CC2C)CC1C (stereo not drawn) [Antibiotic X-14873H] | 8 µg/mL (≈ 13 µM) | adversely affecting the growth of certain gram-positive bacteria | > 1000 µg/mL | 4 µg/mL (≈ 6.51 µM) | > 1000 µg/mL | > 1000 µg/mL | 2 µg/mL (≈ 3.25 µM) | > 1000 µg/mL | 16 µg/mL (≈ 26 µM) | > 1000 µg/mL | > 1000 µg/mL | 8 µg/mL (≈ 13 µM) | 16 µg/mL (≈ 26 µM) | 2 µg/mL (≈ 3.25 µM) | 4000 mg/kg | – | – | – | – | – | –
2 | CCC(C(=O)C(C)C(O)C(C)C1OC(C)(O)C(CC)C(O)C1C)C1OC(C)(C23OC(CC)C(CC)(CC2C)O3)CC1C (stereo not drawn) [Antibiotic X-14873G] | > 1000 µg/mL | adversely affecting the growth of certain gram-positive bacteria | > 1000 µg/mL | > 1000 µg/mL | > 1000 µg/mL | > 1000 µg/mL | 8 µg/mL (≈ 13.4 µM) | > 1000 µg/mL | > 1000 µg/mL | > 1000 µg/mL | > 1000 µg/mL | > 1000 µg/mL | > 1000 µg/mL | 63 µg/mL (≈ 106 µM) | 4000 mg/kg | – | – | – | – | – | –
3 | CC[C@@H](C(=O)[C@@H](C)[C@@H](O)[C@H](C)CCc1ccc(C)c(O)c1C(=O)O)[C@H]1O[C@](CC)([C@H]2CC[C@](O)(CC)[C@H](C)O2)C[C@@H]1C [Lasalocid, lasalocid, reference compound] | – | – | – | – | – | – | – | – | – | – | – | – | – | – | – | 0.376 ± 0.109 | 0.390 ± 0.073 | 0.373 ± 0.015 | 0.381 ± 0.064 | 0.372 ± 0.056 | VFA Ratio: C3/(C2 + nC4) [2, 11]: 0.229 ± 0.013; VFA Ratio: C3/(C2 + nC4) [2, 12]: 0.255 ± 0.051; VFA Ratio: C3/(C2 + nC4) [2, 13]: 0.244 ± 0.060; VFA Ratio: C3/(C2 + nC4) [2, 14]: 0.236 ± 0.041; VFA Ratio: C3/(C2 + nC4) [2, 15]: 0.224 ± 0.011
4 | CCC(C(=O)C(C)C(O)C(C)C1OC(O)(CC(=O)O)C(CC)C(O)C1C)C1OC(C)(C2(O)OC(CC)(C(O)CC)CC2C)CC1C (stereo not drawn) [Antibiotic X-14873A] | 3 µg/mL (≈ 4.55 µM) | adversely affecting the growth of certain gram-positive bacteria | 62.5 µg/mL (≈ 94.9 µM) | 3 µg/mL (≈ 4.55 µM) | 3 µg/mL (≈ 4.55 µM) | 125 µg/mL (≈ 190 µM) | 0.8 µg/mL (≈ 1.21 µM) | 500 µg/mL (≈ 759 µM) | 3 µg/mL (≈ 4.55 µM) | 500 µg/mL (≈ 759 µM) | 12.5 µg/mL (≈ 19 µM) | 6.3 µg/mL (≈ 9.56 µM) | 3 µg/mL (≈ 4.55 µM) | 0.1 µg/mL (≈ 0.152 µM) | 120 mg/kg | 0.445 ± 0.075 | 0.584 ± 0.328 | 0.679 ± 0.448 | 0.642 ± 0.387 | 0.495 ± 0.242 | MIC (Pseudomonas aeruginosa B): 128 µg/mL (≈ 194 µM); MIC (Klebsiella pneumoniae A): 128 µg/mL (≈ 194 µM); MIC (Microsporum audouini): 100 µg/mL (≈ 152 µM); MIC [3]: 100 µg/mL (≈ 152 µM); MIC [4]: 128 µg/mL (≈ 194 µM); MIC [5]: 64 µg/mL (≈ 97.1 µM); increase over control of the volatile fatty acid ratio vs lasalocid ([2]; 30 g/ton, compared with lasalocid): greater increase over control of the volitile fatty acid ratio than lasalocid; VFA Ratio: C3/(C2 + nC4) [2, 11]: 0.213 ± 0.016; VFA Ratio: C3/(C2 + nC4) [2, 12]: 0.235 ± 0.036; VFA Ratio: C3/(C2 + nC4) [2, 13]: 0.234 ± 0.042; VFA Ratio: C3/(C2 + nC4) [2, 14]: 0.245 ± 0.046; VFA Ratio: C3/(C2 + nC4) [2, 15]: 0.216 ± 0.038; MIC (Escherichia coli 257): 128 µg/mL (≈ 194 µM); MIC (Salmonella typhi P58A): 128 µg/mL (≈ 194 µM); MIC (Proteus mirabilis 190): 128 µg/mL (≈ 194 µM); minimal effective concentration (E. tenella): 200 µg/mL; MIC (Treponema hyodysenteriae): 5 µg/mL (≈ 7.59 µM); MIC (Serratia marcescens SM): 128 µg/mL (≈ 194 µM); efficiency of feed utilization in ruminant animals (ruminants; administered orally): increases the efficiency of feed utilization; activity as a growth promotant in ruminants (ruminants; ruminants, e.g. cattle): exhibit activity as a growth promotant in ruminants
5 | [H]/N=C(/N)N[C@H]1[C@H](O)[C@@H](O)[C@H](O[C@@H]2O[C@@H](C)[C@](O)(C=O)[C@H]2O[C@@H]2O[C@@H](CO)[C@H](O)[C@@H](O)[C@@H]2NC)[C@@H](N/C(N)=N\[H])[C@@H]1O [Streptomycin] | – | – | – | – | – | – | – | – | – | – | – | – | – | – | – | – | – | – | – | – | zone of inhibition at 10 µg/disc (Strain X-14873): 13 mm
